We go through 3 molecules from patent US20230220327A1, “SERPIN PRODUCTION” (SOCIETE DES PRODUITS NESTLE S.A., priority 2019, published 2023).

Assay [1] has as its system B. longum subsp. suis ATCC 27533 (T). Briefly: serpin protein levels (ELISA) in B. longum subsp suis. In kind it is cell-based. As to conditions: 1% galactose, 18 h (FIG. 7). How it is done: (§1) 48-well microtiter plate with pH sensor and dissolved oxygen (DO) sensor were used to culture the strains in Biolector (m2p-labs Aachen, Germany). It was continuously shaken to prevent bacteria aggregation for 8 h. Cultures were harvested by centrifugation and supernatant was removed. Pellet was resuspended in PBS supplemented with halt protease inhibitor (Sigma) and lysed using glassbeads. Lysate containing both soluble and insoluble material was then collected.
(§2) Total protein content was measured using Pierce BCA kit (Thermofisher) and serpin protein concentration was determined using ELISA.
(§3) Serpin is furthermore conserved within a restricted number of Bifidobacteria species (Turroni, F. et al. Characterization of the serpin-encoding gene of Bifidobacterium breve 210B. Appl Environ Microbiol 76, 3206-3219, doi:10.1128/AEM.02938-09 (2010)). Strains belonging to these species (Table 3) were cultured in Biolector (see example 1) in a MRSc base without sugar, to which 1% glucose, 1% galactose was added. […] Cultures were grown for 18 h and harvested. Obtained pellets were further analyzed for total and serpin protein content (see example 1).
In general terms: In an ELISA, binding on a coated surface is turned into a signal by an enzyme label.

Another assay has as its system B. longum NCC 2705. Nature of the assay: serpin protein levels (ELISA) in B. longum NCC 2705 grown on different carbohydrates. In kind it is cell-based, Bifidobacterium longum subsp longum. How it is done: B. longum strain CNCM 1-2618 (NCC 2705) was grown in Biolector (growth conditions—anaerobic, 37 00) in MRS+5 mM L-cysteine (MRSc) base without sugar, to which different carbohydrates were added.
as §1, §2
B. longum NCC 2705 was cultured in Biolector (as described in Example 1) in a base of MRSc without sugar, with the addition of different glucose & galactose ratios, to a final concentration of 1%. Cultures were collected after 18 h of growth and analyzed for total & serpin protein levels (as described in Example 1).
B. longum NCC 2705 was grown on an MRSc base without sugar, with addition of different commercially available galactooligosaccharides (GOS) at different concentrations. […] Obtained pellets were analyzed for total and serpin protein content (see Example 1). […]

A further assay deals with B. breve ATCC 15700 (T). Nature of the assay: serpin protein levels (ELISA) in B. breve. In kind it is cell-based. As to conditions: 18 h (FIG. 7). Here is the method: as §1, §2, §3
The test system of assay [2] is B. longum subsp. longum strains. Briefly: growth of B. longum subsp. longum strains on galactose as sole carbohydrate source. In kind it is cell-based, Bifidobacterium longum subsp longum. To be noted: 1% galactose, MRSc base without sugar. How it is done: The serpin encoding gene and its surrounding is highly conserved within the B. longum subsp. longum species. Strains of B. longum subsp. longum were selected to represent the entire span of the genetic phylogenetic tree (Table 2). All strains were cultured in Biolector (according to example 1) in a MRSc base without sugar, to which 1% glucose, 1% galactose or a mix of glucose & galactose (respectively 0.2 & 0.8%) was added. Cultures were grown for 18 h and harvested. Obtained pellets were further analyzed for total and serpin protein content (see example 1).

Assay [3] shares this test system. Briefly: serpin protein levels (ELISA) in B. longum subsp. longum strains. In kind it is cell-based, Bifidobacterium longum subsp longum. Here is the method:
as §1, §2
The serpin encoding gene and its surrounding is highly conserved within the B. longum subsp. longum species. Strains of B. longum subsp. longum were selected to represent the entire span of the genetic phylogenetic tree (Table 2). […] Obtained pellets were further analyzed for total and serpin protein content (see example 1).
Serpin is furthermore conserved within a restricted number of Bifidobacteria species (Turroni, F. et al. Characterization of the serpin-encoding gene of Bifidobacterium breve 210B. Appl Environ Microbiol 76, 3206-3219, doi:10.1128/AEM.02938-09 (2010)). […] Obtained pellets were further analyzed for total and serpin protein content (see example 1).

In assay [4] the test system is B. longum subsp. infantis ATCC 15697 (T). Briefly: serpin protein levels (ELISA) in B. longum subsp infantis. To be noted: 1% galactose, 18 h (FIG. 7). In kind it is cell-based. How it is done:
as §1, §2, §3

Assay [5] deals with various forms of elastases and proteinase. As to conditions: Ying & Simon, 1993; cited from earlier work.
Assay [6] deals with mouse model of gluten sensitivity. As to conditions: elafin delivered by a recombinant Lactococcus lactis (Galipeau et al., 2014); cited from earlier work.
For a further assay, the target named is T1, transglutaminase 2 (TG2) (Homo sapiens, UniProt P21980).
T1 sequence (P21980 1-687): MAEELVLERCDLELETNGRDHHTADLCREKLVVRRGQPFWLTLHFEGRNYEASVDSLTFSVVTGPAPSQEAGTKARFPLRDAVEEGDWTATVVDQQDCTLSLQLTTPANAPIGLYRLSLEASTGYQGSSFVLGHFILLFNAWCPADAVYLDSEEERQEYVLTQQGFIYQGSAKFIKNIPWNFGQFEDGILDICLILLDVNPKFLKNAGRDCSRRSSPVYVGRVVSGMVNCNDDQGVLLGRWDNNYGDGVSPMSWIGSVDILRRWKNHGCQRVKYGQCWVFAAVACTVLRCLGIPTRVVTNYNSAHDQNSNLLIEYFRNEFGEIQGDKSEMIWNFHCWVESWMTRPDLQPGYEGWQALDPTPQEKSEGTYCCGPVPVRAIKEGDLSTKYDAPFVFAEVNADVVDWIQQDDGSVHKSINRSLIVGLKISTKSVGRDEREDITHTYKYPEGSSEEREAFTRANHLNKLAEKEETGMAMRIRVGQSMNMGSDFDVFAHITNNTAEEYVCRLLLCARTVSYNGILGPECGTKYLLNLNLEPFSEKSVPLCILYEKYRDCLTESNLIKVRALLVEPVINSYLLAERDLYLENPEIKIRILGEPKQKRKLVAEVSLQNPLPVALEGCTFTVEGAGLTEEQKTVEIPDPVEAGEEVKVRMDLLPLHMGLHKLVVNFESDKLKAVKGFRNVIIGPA
As to conditions: in-vitro; inhibits deamidation of 33-mer gliadin peptide (McCarville et al. 2015); cited from earlier work.

“Also recorded” adds a separate entry of the source. No end group written: not given here.

Consider `O=C[C@H](O)[C@@H](O)[C@@H](O)[C@H](O)CO` [galactose], for which the serpin induction result in assay [1] is “neither induced by galactose”; in the assay on B. breve ATCC 15700 (T) (1% galactose), “none of the B. breve ATCC 15700 (T), B. longum subsp infantis nor B. longum subsp suis strains were induced”; in assay [4] it was “neither induced by galactose”. For the same molecule, the “production of serpin in the presence of glucose” value with B. longum NCC 2705 (different glucose & galactose ratios, final concentration 1%, 18 h, only when glucose is depleted during fermentation (FIG. 2)) is “can induce production of serpin”. Also, the serpin protein levels entry is recorded as “increase” in the assay with B. longum NCC 2705 (grown for 8 h in MRSc base without sugar plus carbohydrate, compared to all other sugars tested (FIG. 1)) and “increased in all B. longum subsp. longum strains; also recorded: significant serpin protein increase” in assay [3] (1% galactose or 0.2% glucose & 0.8% galactose vs 1% glucose, 18 h (FIGS. 5-7)). Also, in assay [2], the “ability to grow on galactose as sole carbohydrate source” value was “Not all strains of B. longum subsp. longum were able to grow”.
As to “Elafin: human serine protease inhibitor (AQEPVKGPVSTKPGSCPIILIRCAMLNPPNRCLKDTDCPGIKKCCEGSCGMACFVPQ; ends and bridges not checked; cysteine pairing not given here; UniProt P19957 61-117, looked up)”, the “inhibitory capacity against elastases and proteinase” value in assay [5] is reported as “potent inhibitory capacity”. Moreover, the “gluten-induced pathology and intestine inflammation” value in assay [6] is “reduce gluten-induced pathology and normalise intestine inflammation”. In addition, the “inhibition of transglutaminase 2 (TG2)” value in the assay with transglutaminase 2 (TG2) was “moderately inhibits”.

B1: Papain: papain (from Worthington), previously demonstrated to induce serpin in B. breve (protein, UniProt P00784 134-345, looked up)
Papain: IPEYVDWRQKGAVTPVKNQGSCGSCWAFSAVVTIEGIIKIRTGNLNEYSEQELLDCDRRSYGCNGGYPWSALQLVAQYGIHYRNTYPYEGVQRYCRSREKGPYAAKTDGVRQVQPYNEGALLYSIANQPVSVVLEAAGKDFQLYRGGIFVGPCGNKVDHAVAAVGYGPNYILIKNSWGTGWGENGYIRIKRGTGNSYGVCGLYTSSFYPVKN
With B1, the serpin levels result in the assay with B. breve ATCC 15700 (T) (0.05 mg/ml papain on top of 1% glucose) is on record as “did in the B. breve ATCC 15700 (T) strain”; in assay [3] (0.05 mg/ml papain on top of 1% glucose, 18 h (FIG. 7)) it was “did not increase serpin levels”.
